# From patent US11999739B2, “Antimicrobials methods of making and using the same” (BIOVERSYS AG, priority 2016, dated 2024)
# What was measured:
# [1] = tested on: Staphylococcus aureus (S. aureus) 11540 strain; assay: Standard microdilution MIC assay, S. aureus; format: cell-based
# Method: (§1) The in vitro activity of the compounds of the present disclosure can be determined. Antimicrobial testing is typically performed to determine the minimum inhibitory concentration (MIC). Minimum inhibitory concentrations (MICs) are determined by the microdilution method in a final volume of 100 μl according to protocols outlined by The Clinical and Laboratory Standards Institute (CLSI). Performance standards for reference strains are assessed within the same experimental design to maintain quality control. See, for example, Clinical Laboratory Standards Institute: Methods for dilution antimicrobial susceptibility tests for bacteria that grow aerobically M7-A8. Approved Standard-Eighth Edition. Wayne, PA: CLSI; December 2008; and Clinical Laboratory Standards Institute: Performance Standards for Antimicrobial Susceptibility Testing M100-S20; Approved Standard-Twentieth Edition. Wayne, PA: CLSI; June 2010.
# (§2) The compounds of the present disclosure were tested for antimicrobial activity. The Compounds 1-293 were run against Escherichia coli (E co/i) strain ATCC25922 and against Staphylococcus aureus (S. aureus) 11540 strain using a standard microdilution assay to determine minimum inhibitory concentrations (MICs). […] It will be recognized by one skilled in the art that the compounds can be assessed against other bacterial organisms and that the presentation of data for activity against Escherichia coli and Staphylococcus aureus are illustrative and in no way is intended to limit the scope of the present disclosure. The compounds of the present disclosure can be assayed against a range of other microorganisms depending upon the performance activity desired to be gathered. Furthermore, the “+” and “−” representation and the selection of a cutoff value of 16 micrograms/mL is also illustrative and in no way is intended to limit the scope of the present disclosure.
# [2] = tested on: Escherichia coli strain ATCC25922; assay: Standard microdilution MIC assay, E. coli; format: cell-based
# Method: as §1, §2
MIC [1],MIC [2],Compound
≤ 16 µg/mL,≤ 16 µg/mL,CC(=N)N[C@H](C)C[C@@H]1CCC[C@@H](c2ccc(-n3cc4cc(-c5cc(CCC[C@@H](N)C6CC6)cc(Cl)c5F)[nH]c4nc3=O)cc2)N1 [Compound 257]
≤ 16 µg/mL,≤ 16 µg/mL,C=C[C@@H](CCNC(C)=N)N[C@@H](C)c1ccc(-n2cc3cc(-c4cc(CCC[C@@H](N)CF)cc(Cl)c4F)[nH]c3nc2=O)cc1 [Compound 150]
≤ 16 µg/mL,≤ 16 µg/mL,COC[C@H](N)CCCc1cc(OC(F)(F)F)c(F)c(-c2cc3cn(-c4ccc([C@@H]5CSC[C@@H](CCNC(C)=N)N5)cc4)c(=O)nc3[nH]2)c1 [Compound 270]
≤ 16 µg/mL,≤ 16 µg/mL,CSc1cc(-n2cc3cc(-c4cc(CCC[C@H](C)N)cc(C(F)(F)F)c4)[nH]c3nc2=O)cc(F)c1[C@@H]1CCC[C@@H](CCNC(C)=N)N1CCCF [Compound 329]
≤ 16 µg/mL,≤ 16 µg/mL,CC(=N)NCC[C@@H]1CNC[C@@H](c2ccc(-n3cc4cc(-c5cc(CCC[C@H](C)N)cc(Cl)c5F)[nH]c4nc3=O)cc2)O1 [Compound 32]
≤ 16 µg/mL,≤ 16 µg/mL,CC(=N)NCC[C@@H]1CCC[C@@H](c2ccc(-n3cc4cc(-c5cc(CCC[C@H](C)N)cc(Cl)c5F)[nH]c4nc3=O)cc2)N1C [Compound 109]
≤ 16 µg/mL,≤ 16 µg/mL,CC(=N)NCC[C@@H]1CCC[C@@H](c2ccc(-n3cc4cc(-c5cc(CCC[C@@H](N)CF)cc(Cl)c5F)[nH]c4nc3=O)cc2)N1 [Compound 104]
≤ 16 µg/mL,≤ 16 µg/mL,CC(=N)NCC[C@@H]1CCC[C@@H](c2ccc(-n3cc4cc(-c5cc(CCC[C@H](C)N)cc(Cl)c5F)[nH]c4nc3=O)cc2)N1CCc1cccnc1 [Compound 261]
≤ 16 µg/mL,≤ 16 µg/mL,CSc1cc(-n2cc3cc(-c4cc(CCC[C@@H](N)C5CC5)cc(C(F)(F)F)c4)[nH]c3nc2=O)ccc1[C@@H]1CCC[C@@H](CCNC(C)=N)N1CCCF [Compound 326]
≤ 16 µg/mL,≤ 16 µg/mL,CC(=N)NCC[C@@H]1CCC[C@@H](c2ccc(-n3cc4cc(-c5cc(F)c(C(F)(F)F)c(CCC[C@H](C)N)c5)[nH]c4nc3=O)cc2)N1 [Compound 318]
≤ 16 µg/mL,≤ 16 µg/mL,C=C[C@@H](CCNC(C)=N)NCc1ccc(-n2cc3cc(-c4cc(CCC[C@@H](N)CC(N)=O)cc(Cl)c4F)[nH]c3nc2=O)cc1 [Compound 157]
≤ 16 µg/mL,≤ 16 µg/mL,CC(=N)NCCCNCc1ccc(-n2cc3cc(-c4cc(CCC[C@H](C)N)cc(Cl)c4F)[nH]c3nc2=O)cc1F [Compound 76]
≤ 16 µg/mL,≤ 16 µg/mL,CC(=N)NCC[C@@H]1CCC[C@@H](c2c(F)cc(-n3cc4cc(-c5cc(CCC[C@@H](N)CF)cc(Cl)c5F)[nH]c4nc3=O)cc2F)N1 [Compound 279]
≤ 16 µg/mL,≤ 16 µg/mL,C=C[C@H](N)CCCc1cc(Cl)c(F)c(-c2cc3cn(-c4cc(F)c([C@@H]5CCC[C@@H](CCNC(C)=N)N5CCCF)c(SC)c4)c(=O)nc3[nH]2)c1 [Compound 350]
≤ 16 µg/mL,≤ 16 µg/mL,CC(=N)NCC[C@@H]1CCC[C@@H](c2ccc(-n3cc4cc(-c5cc(CCCC6(N)CC6)cc(Cl)c5F)[nH]c4nc3=O)cc2)N1 [Compound 147]
≤ 16 µg/mL,≤ 16 µg/mL,COC[C@H](N)CCCc1cc(OC(F)(F)F)c(F)c(-c2cc3cn(-c4cc(F)c([C@@H]5CCC[C@@H](CCNC(C)=N)N5)c(F)c4)c(=O)nc3[nH]2)c1 [Compound 280]
≤ 16 µg/mL,≤ 16 µg/mL,COC[C@H](N)CCCc1cc(OC(F)(F)F)c(F)c(-c2cc3cn(-c4ccc([C@@H]5CCC[C@@H](CCNC(C)=N)N5)c(SC)c4)c(=O)nc3[nH]2)c1 [Compound 198]
≤ 16 µg/mL,≤ 16 µg/mL,COC[C@H](N)CCCc1cc(-c2cc3cn(-c4ccc([C@@H]5CCC[C@@H](CCNC(C)=N)N5)c(OC)c4)c(=O)nc3[nH]2)c(F)c(C(F)(F)F)c1 [Compound 194]
≤ 16 µg/mL,≤ 16 µg/mL,C[C@H](N)CCCc1cc(Cl)c(F)c(-c2cc3cn(-c4ccc([C@@H]5CCC[C@@H](CCNC(=N)CF)N5C)cc4)c(=O)nc3[nH]2)c1 [Compound 108]
≤ 16 µg/mL,≤ 16 µg/mL,CC(=N)NCCCN[C@@H](C)c1ccc(-n2cc3cc(-c4cc(CCC[C@H](C)N)cc(Cl)c4F)[nH]c3nc2=O)cc1F [Compound 93]
≤ 16 µg/mL,≤ 16 µg/mL,CC(=N)NCC[C@@H]1CCC[C@@H](c2ccc(-n3cc4cc(-c5cc(CCC[C@@H](N)C6CC6)cc(OC(F)(F)F)c5F)[nH]c4nc3=O)cc2)N1 [Compound 207]
≤ 16 µg/mL,≤ 16 µg/mL,CSc1cc(-n2cc3cc(-c4cc(CCC[C@@H](N)CF)cc(C(F)(F)F)c4)[nH]c3nc2=O)ccc1[C@@H]1CCC[C@@H](CCNC(C)=N)N1 [Compound 203]

MIC [1],MIC [2],Compound
≤ 16 µg/mL,≤ 16 µg/mL,CC(=N)NCCCN[C@@H](C)c1ccc(-n2cc3cc(-c4cc(CCC[C@@H](N)C5CC5)cc(Cl)c4F)[nH]c3nc2=O)cc1F [Compound 99]
≤ 16 µg/mL,≤ 16 µg/mL,C[C@H](N)CCCc1cc(Cl)c(F)c(-c2cc3cn(-c4ccc([C@H](C)NCCCNC(=N)CF)c(F)c4)c(=O)nc3[nH]2)c1 [Compound 94]
≤ 16 µg/mL,≤ 16 µg/mL,CC(=N)NCC[C@@H]1CCC[C@@H](c2ccc(-n3cc4cc(-c5cc(CCC[C@H](C)N)cc(Cl)c5F)[nH]c4nc3=O)cc2)N1CCn1ccnc1 [Compound 262]
≤ 16 µg/mL,≤ 16 µg/mL,CSc1cc(-n2cc3cc(-c4cc(CCC[C@@H](N)C5CC5)cc(Cl)c4F)[nH]c3nc2=O)ccc1[C@@H]1CCC[C@@H](CCNC(C)=N)N1CCCF [Compound 333]
≤ 16 µg/mL,≤ 16 µg/mL,CC(=N)NCC[C@H](CNc1ncc[nH]1)NCc1ccc(-n2cc3cc(-c4cc(CCC[C@H](C)N)cc(Cl)c4F)[nH]c3nc2=O)cc1 [Compound 19]
≤ 16 µg/mL,≤ 16 µg/mL,CC(=N)NCC[C@@H](NCc1ccc(-n2cc3cc(-c4cc(CCC[C@@H](N)CF)cc(C(F)(F)F)c4F)[nH]c3nc2=O)cc1)C1CC1 [Compound 230]
≤ 16 µg/mL,≤ 16 µg/mL,C=CC(CCNC(=N)CC(F)(F)F)NCc1ccc(-n2cc3cc(-c4cc(CCC[C@H](C)N)cc(Cl)c4F)[nH]c3nc2=O)cc1 (some centres unmarked) [Compound 16]
≤ 16 µg/mL,≤ 16 µg/mL,C=C[C@@H](N)CCCc1cc(Cl)c(F)c(-c2cc3cn(-c4ccc(CN[C@@H](CO)CCNC(C)=N)cc4)c(=O)nc3[nH]2)c1 [Compound 39]
≤ 16 µg/mL,≤ 16 µg/mL,CC(=N)NCC[C@H](CNc1ncc[nH]1)N[C@@H](C)c1ccc(-n2cc3cc(-c4cc(CCC[C@H](C)N)cc(Cl)c4F)[nH]c3nc2=O)cc1 [Compound 165]
≤ 16 µg/mL,≤ 16 µg/mL,C=C[C@H](N)CCCc1cc(Cl)c(F)c(-c2cc3cn(-c4ccc([C@@H]5CCC[C@@H](CCNC(C)=N)N5)c(C)c4)c(=O)nc3[nH]2)c1 [Compound 259]
≤ 16 µg/mL,≤ 16 µg/mL,COC[C@H](N)CCCc1cc(-c2cc3cn(-c4ccc(CN[C@H](CCNC(C)=N)C5CC5)cc4)c(=O)nc3[nH]2)c(F)c(C(F)(F)F)c1 [Compound 224]
≤ 16 µg/mL,≤ 16 µg/mL,CC(=N)NCC[C@@H]1CCC[C@@H](c2ccc(-n3cc4cc(-c5cc(CCC[C@@H](N)CC#N)cc(Cl)c5F)[nH]c4nc3=O)cc2)N1 [Compound 154]
≤ 16 µg/mL,≤ 16 µg/mL,CC(=N)NCC[C@@H]1CCC[C@@H](c2ccc(-n3cc4cc(-c5cc(CCC[C@H](C)N)cc(C(F)(F)F)c5)[nH]c4nc3=O)cc2)N1 [Compound 172]
≤ 16 µg/mL,≤ 16 µg/mL,CC(=N)NCCCN[C@@H](C)c1ccc(-n2cc3cc(-c4cc(CCC(F)(F)CN)cc(Cl)c4F)[nH]c3nc2=O)cc1F [Compound 106]
≤ 16 µg/mL,≤ 16 µg/mL,CSc1cc(-n2cc3cc(-c4cc(CCC[C@@H](N)C5CC5)cc(OC(F)(F)F)c4F)[nH]c3nc2=O)cc(F)c1[C@@H]1CCC[C@@H](CCNC(C)=N)N1 [Compound 242]
≤ 16 µg/mL,≤ 16 µg/mL,C=C[C@@H](N)CCCc1cc(Cl)c(F)c(-c2cc3cn(-c4ccc([C@@H]5CCC[C@@H](CCNC(C)=N)N5)c(F)c4)c(=O)nc3[nH]2)c1 [Compound 166]
≤ 16 µg/mL,≤ 16 µg/mL,N=C(CF)NCC[C@H](CO)NCc1ccc(-n2cc3cc(-c4cc(CCC[C@@H](N)C5CC5)cc(Cl)c4F)[nH]c3nc2=O)cc1 [Compound 85]
≤ 16 µg/mL,≤ 16 µg/mL,CC(=N)NCC[C@@H]1CCC[C@@H](c2ccc(-n3cc4cc(-c5cc(CCC[C@@H](N)C6CC6)cc(Cl)c5F)[nH]c4nc3=O)cc2F)N1CCCF [Compound 332]
≤ 16 µg/mL,≤ 16 µg/mL,CC(=N)NCC[C@@H]1CCC[C@@H](c2ccc(-n3cc4cc(-c5cc(CCC[C@@H](N)C6CC6)cc(Cl)c5F)[nH]c4nc3=O)cc2)N1CCCF [Compound 334]
≤ 16 µg/mL,≤ 16 µg/mL,CC(=N)NCC[C@@H]1CCC[C@@H](c2ccc(-n3cc4cc(-c5cc(CCC[C@@H](N)CN)cc(Cl)c5F)[nH]c4nc3=O)cc2)N1 [Compound 289]
≤ 16 µg/mL,≤ 16 µg/mL,CSc1cc(-n2c(C)c3cc(-c4cc(CCC[C@@H](N)C5CC5)cc(Cl)c4F)[nH]c3nc2=O)ccc1[C@@H]1CCC[C@@H](CCNC(C)=N)N1 [Compound 335]
